Laboratory results from patent US20080039444A1, “COMPOUNDS” (GLAXO GROUP LIMITED, priority 2006, published 2008).
Counter-ions that a name gives are not always drawn. Like-named read-outs stand apart in the source and are kept apart here.

Legend:
human H1 receptor [1] = target: T1, human H1 receptor (Homo sapiens, UniProt P35367); assay: Histamine H1 functional antagonist assay (FLIPR): determination of antagonist pA2; type: cell-based
T1 construct: expressed in transfected cells
Procedure: (§1) The human H1 receptor is cloned using known procedures described in the literature [Biochem. Biophys. Res. Commun., 201(2):894 (1994)]. Chinese hamster ovary (CHO) cells stably expressing the human H1 receptor are generated according to known procedures described in the literature [Br. J. Pharmacol., 117(6):1071 (1996)].
(§2) Histamine H1 functional antagonist assay: Determination of antagonist pA2 and duration
The histamine H1 receptor expressing CHO cells are seeded into non-coated black-walled clear bottom 96-well tissue culture plates as described above. Following overnight culture, growth medium is removed from each well, washed with 200 μl phosphate buffered saline (PBS) and is replaced with 50 μl loading dye (250 μM Brilliant Black, 1 μM Fluo-4 diluted in Tyrodes buffer+probenecid (145 mM NaCl, 2.5 mM KCl, 10 mM HEPES, 10 mM D-glucose, 1.2 mM MgCl2, 1.5 mM CaCl2, 2.5 mM probenecid, pH adjusted to 7.40 with NaOH 1.0 M)). Cells are incubated for 45 min at 37° C. The loading buffer is removed and the cells are washed as above, and 90 μl of Tyrodes buffer+probenecid is added to each well. 10 μl of test compound, diluted to the required concentration in Tyrodes buffer+probenecid (or 10 μl Tyrodes buffer+probenecid as a control) is added to each well and the plate is incubated for 30 min at 37° C., 5% CO2. The plates are then placed into a FLIPR™ (Molecular Devices, UK) to monitor cell fluorescence (λex=488 nm, λEM=540 nm) in the manner described in Sullivan et al., (In: Lambert DG (ed.), Calcium Signaling Protocols, New Jersey: Humana Press, 1999, 125-136) before and after the addition of 50 μl histamine over a concentration range of 1 mM-0.1 nM. The resultant concentration response curves are analysed by non-linear regression using a standard four parameter logistic equation to determine the histamine EC50, the concentration of histamine required to produce a response of 50% of the maximum response to histamine. The antagonist pA2 is calculated using the following standard equation: pA2=log(DR-1)- log[B] where DR=dose ratio, defined as EC50antagonist-treated/EC50control and [B]=concentration of antagonist.

human H1 receptor [2] = target: T1, human H1 receptor; assay: Histamine H1 functional antagonist assay (FLIPR): determination of functional pKi values; type: cell-based; conditions: CHO cells expressing human H1, histamine at EC80; read-out: average pKi (pKb) at H1 (converted)
Excerpt: H1 receptor cell line generation and FLIPR assay protocol
1. Generation of histamine H1 cell line
as §1
Histamine H1 functional antagonist assay: Determination of functional pKi values […]
10 μl of test compound, diluted to the required concentration in Tyrodes buffer+probenecid (or 10 μl Tyrodes buffer+probenecid as a control) is added to each well and the plate is incubated for 30 min at 37° C., 5% CO2. The plates are then placed into a FLIPR™ (Molecular Devices, UK) to monitor cell fluorescence (λex=488 nm, αEM=540 nm) in the manner described in Sullivan et al., (In: Lambert DG (ed.), Calcium Signaling Protocols, New Jersey: Humana Press, 1999, 125-136) before and after the addition of 10 μl histamine at a concentration that results in the final assay concentration of histamine being EC80.
Functional antagonism is indicated by a suppression of histamine induced increase in fluorescence, as measured by the FLIPR™ system (Molecular Devices). By means of concentration effect curves, functional affinities are determined using standard pharmacological mathematical analysis.

human H1 receptor [3] = target: T1, human H1 receptor; assay: Histamine H1 functional antagonist assay: antagonist duration after washout; type: cell-based; conditions: at one or more time points
Procedure: as §1, §2
To determine the antagonist duration, cells are cultured overnight in non-coated black-walled clear bottom 96-well tissue culture plates, are washed with PBS and are incubated with a concentration of antagonist chosen to give an approximate DR in the range 30-300. Following the 30 min antagonist incubation period, the cells are washed two or three times with 200 μl of PBS and then 100 μl Tyrodes buffer is added to each well to initiate antagonist dissociation. Following incubation for predetermined times, typically 30-270 min at 37° C., the cells are then washed again with 200 μl PBS and are incubated with 100 μl Tyrodes buffer containing Brilliant Black, probenecid and Fluo-4 for 45 min at 37° C., as described above. After this period, the cells are challenged with histamine in the FLIPR™ as described above. The dose ratio at each time point is used to determine the fractional H1 receptor occupancy by the following equation: fractional receptor occupancy=(DR-1)/DR. The decrease in receptor occupancy over time approximates to a straight line and is analysed by linear regression. The slope of this straight line fit is used as an index of the dissociation rate of the antagonist. The dose ratios for antagonist treated cells and for antagonist treated and washed cells at each time point are used to calculate a relative dose ratio (rel DR) which is also used as an index of antagonist duration. Antagonists with long duration of action produce rel DR values close to 1, and antagonists with short duration of action produce rel DR values that approaches the dose ratio value obtained for antagonist treatment alone.

[4] = CNS penetration (intravenous bolus or infusion at steady state, blood and brain levels); type: in vivo, rat; conditions: male CD Sprague Dawley rats
Procedure: (i) CNS penetration by bolus administration
Compounds are dosed intravenously at a nominal dose level of 1 mg/kg to male CD Sprague Dawley rats. Compounds are formulated in 5% DMSO/45% PEG200/50% water. Blood samples are taken under terminal anaesthesia with isoflurane at 5 min post-dose and the brains are also removed for assessment of brain penetration. Blood samples are taken directly into heparinised tubes. Blood samples are prepared for analysis using protein precipitation and brain samples are prepared using extraction of drug from brain by homogenisation and subsequent protein precipitation. The concentration of parent drug in blood and brain extracts is determined by quantitative LC-MS/MS analysis using compound-specific mass transitions.
(ii) CNS penetration following intravenous infusion at steady state
A loading dose of the compounds is given to male CD Sprague Dawley rats at a nominal dose level of 0.4 mg/kg. The compounds are then infused intravenously for 4 h at a nominal dose level of 0.1 mg/kg/h. Compounds are formulated in 2% DMSO/30% PEG200/68% water. Serial or terminal blood samples are taken at 0.5, 1.5, 2.5, 3, 3.5 and 4 h post dose. The final blood sample is collected under terminal anaesthesia with isoflurane and the brains are also removed for assessment of brain penetration. Blood samples are taken directly into heparinised tubes. Blood samples are prepared for analysis using protein precipitation and brain samples are prepared using extraction of drug from brain by homogenisation and subsequent protein precipitation. The concentration of parent drug in blood and brain extracts is determined by quantitative LC-MS/MS analysis using compound-specific mass transitions.

[5] = CHO cells expressing human H1, histamine concentration response curves, read-out: average pA2 values at H1 (converted)

T1 sequence (P35367 whole entry): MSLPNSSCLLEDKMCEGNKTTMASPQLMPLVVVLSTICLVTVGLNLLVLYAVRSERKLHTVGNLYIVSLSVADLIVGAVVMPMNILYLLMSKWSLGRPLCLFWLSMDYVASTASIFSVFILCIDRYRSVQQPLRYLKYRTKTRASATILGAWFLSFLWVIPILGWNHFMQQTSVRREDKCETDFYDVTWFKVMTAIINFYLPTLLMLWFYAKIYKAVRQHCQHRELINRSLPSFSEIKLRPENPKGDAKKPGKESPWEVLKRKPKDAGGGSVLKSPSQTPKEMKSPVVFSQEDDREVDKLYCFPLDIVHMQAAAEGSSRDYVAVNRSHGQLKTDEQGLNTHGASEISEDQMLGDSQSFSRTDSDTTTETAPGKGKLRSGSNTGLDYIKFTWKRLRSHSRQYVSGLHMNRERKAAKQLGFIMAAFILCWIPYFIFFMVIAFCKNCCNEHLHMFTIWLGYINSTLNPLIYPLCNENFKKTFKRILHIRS

Compound | Kb (human H1 receptor [1]; [5]) [nM] | duration of action compared with azelastine in the histamine H1 functional antagonist assay (human H1 receptor [3]) | also measured
CN(CCCCc1ccc(OCCCN2CCCCCC2)cc1)CCn1nc(Cc2ccc(Cl)cc2)c2ccccc2c1=O [Example 3, 4-[(4-Chlorophenyl)methyl]-2-{2-[[4-(4-{[3-(hexahydro-1H-azepin-1-yl)propyl]oxy}phenyl)butyl](methyl)amino]ethyl}-1(2H)-phthalazinone] | < 10 | – | –
O=c1c2ccccc2c(Cc2ccc(Cl)cc2)nn1C[C@H]1CCCN1CCCCCc1ccc(OCCCN2CCCCCC2)cc1 [Example 6, 4-[(4-Chlorophenyl)methyl]-2-({(2R)-1-[5-(4-{[3-(hexahydro-1H-azepin-1-yl)propyl]oxy}phenyl)pentyl]-2-pyrrolidinyl}methyl)-1(2H)-phthalazinone] | < 1 | – | –
COc1ccc(Cc2nn(C[C@H]3CCCN3CCCCc3ccc(OCCCN4CCCCCC4)cc3)c(=O)c3ccccc23)cc1 [Example 7, 2-({(2R)-1-[4-(4-{[3-(Hexahydro-1H-azepin-1-yl)propyl]oxy}phenyl)butyl]-2-pyrrolidinyl}methyl)-4-{[4-(methyloxy)phenyl]methyl}-1(2H)-phthalazinone diformate] | – | longer duration of action than azelastine | Ki (human H1 receptor [2]): < 10 nM; Kb (human H1 receptor [1]): < 1 nM; CNS penetration compared with azelastine [4]: lower CNS penetration than azelastine
O=c1c2ccccc2c(Cc2ccc(O)cc2)nn1C[C@H]1CCCN1CCCCc1ccc(OCCCN2CCCCCC2)cc1 [Example 8, 2-({(2R)-1-[4-(4-{[3-(Hexahydro-1H-azepin-1-yl)propyl]oxy}phenyl)butyl]-2-pyrrolidinyl}methyl)-4-[(4-hydroxyphenyl)methyl]-1(2H)-phthalazinone] | < 10 | longer duration of action than azelastine | –
O=c1c2ccccc2c(Cc2ccc(F)cc2)nn1C[C@H]1CCCN1CCCCc1ccc(OCCCN2CCCCCC2)cc1 [Example 9, 4-[(4-Fluorophenyl)methyl]-2-({(2R)-1-[4-(4-{[3-(hexahydro-1H-azepin-1-yl)propyl]oxy}phenyl)butyl]-2-pyrrolidinyl}methyl)-1(2H)-phthalazinone] | < 1 | longer duration of action than azelastine | –
O=c1c2ccccc2c(Cc2ccc(Cl)cc2)nn1C1CCCN(CCc2ccc(OCCCN3CCCCCC3)cc2)CC1 (stereo not shown) [Example 11, 4-[(4-Chlorophenyl)methyl]-2-{1-[2-(4-{[3-(hexahydro-1H-azepin-1-yl)propyl]oxy}phenyl)ethyl]hexahydro-1H-azepin-4-yl}-1(2H)-phthalazinone] | < 10 | – | –
O=c1c2ccccc2c(Cc2ccc(Cl)cc2)nn1C1CCCN(CCCc2ccc(OCCCN3CCCCCC3)cc2)CC1 (stereo not shown) [Example 12, 4-[(4-Chlorophenyl)methyl]-2-{1-[3-(4-{[3-(hexahydro-1H-azepin-1-yl)propyl]oxy}phenyl)propyl]hexahydro-1H-azepin-4-yl}-1(2H)-phthalazinone] | < 10 | – | –
O=c1c2ccccc2c(Cc2ccc(Cl)cc2)nn1C[C@H]1CCCN1CCCOc1ccc2c(c1)CCN(C1CCC1)CC2 [Example 15, 4-[(4-Chlorophenyl)methyl]-2-[((2R)-1-{3-[(3-cyclobutyl-2,3,4,5-tetrahydro-1H-3-benzazepin-7-yl)oxy]propyl}-2-pyrrolidinyl)methyl]-1(2H)-phthalazinone] | < 10 | longer duration of action than azelastine | –
O=c1c2ccccc2c(Cc2ccc(Cl)cc2)nn1C1CCCN(CCCOc2ccc3c(c2)CCN(C2CCC2)CC3)CC1 (stereo not shown) [Example 16, 4-[(4-Chlorophenyl)methyl]-2-(1-{3-[(3-cyclobutyl-2,3,4,5-tetrahydro-1H-3-benzazepin-7-yl)oxy]propyl}hexahydro-1H-azepin-4-yl)-1(2H)-phthalazinone formate salt] | – | – | CNS penetration compared with azelastine [4]: comparable CNS penetration to azelastine
O=C(NCCN1CCCC(n2nc(Cc3ccc(Cl)cc3)c3ccccc3c2=O)CC1)c1ccc2c(c1)CCN(C1CCC1)CC2 (stereo not shown) [Example 18, N-(2-{4-[4-[(4-Chlorophenyl)methyl]-1-oxo-2(1H)-phthalazinyl]hexahydro-1H-azepin-1-yl}ethyl)-3-cyclobutyl-2,3,4,5-tetrahydro-1H-3-benzazepine-7-carboxamide diformate salt] | – | longer duration of action than azelastine | Kb (human H1 receptor [1]): < 10 nM
O=c1c2ccncc2c(Cc2ccc(Cl)cc2)nn1C[C@H]1CCCN1CCCCc1ccc(OCCCN2CCCCCC2)cc1 [Example 23, 4-[(4-Chlorophenyl)methyl]-2-({(2R)-1-[4-(4-{[3-(hexahydro-1H-azepin-1-yl)propyl]oxy}phenyl)butyl]-2-pyrrolidinyl}methyl)pyrido[3,4-d]pyridazin-1(2H)-one] | – | longer duration of action than azelastine | Kb (human H1 receptor [1]): < 1 nM
